Source: patent publication EP3566700A1, “AMBROXOL FOR DNA DAMAGE REPAIR DISEASE THERAPIES” (Universitat Autònoma de Barcelona, priority 2018, dated 2019)

Legend:
FANCD2 ubiquitination = FANCD2 ubiquitination by Western blotting; type: cell-based, human; conditions: two FANCA-deficient lymphoblastoid cell lines
Experimental: To disregard a direct effect on FA/BRCA pathway, FANCD2 ubiquitination was analyzed by Western blotting in two different FANCA-deficient lymphoblastoid cell lines.

Fanca-deficient mice [1] = experiment: Histopathology study of spleen, liver and lung; type: in vivo
Experimental: (§1) Fanca-deficient mice strain was Fanca^tm1Faw and genetic background 129P2/OlaHsd * FVB with exon deletion 4-7 (c.f. Cheng NC et al., "Mice with a targeted disruption of the Fanconi anemia homolog Fanca", Hum Mol Genet. 2000, vol. 9(12), pp. 1805-11). 30 male mice were randomized by age (12 to 16 weeks) and weight (25 grams on average) in three experimental groups (water, NAC and AMB).
(§2) NAC (40mM) (used for comparative purposes) and Ambroxol (1mM) were administered in drinking water (filtered and UV irradiated) ad libitum. To monitor MN on blood cells (erythrocytes and reticulocytes) mice were tail bleeded on weeks 1, 2, 4, 6, 8, 12, 16 and 24. Hematological parameters and blood counts were also evaluated. At the end of the study mice were euthanized and bone marrow, blood and organ samples (spleen, lung, and liver) collected.
A total of 7 mice were studied in the placebo (water) group and 10 mice in the NAC or Ambroxol treated groups. Samples (spleen, liver and lung) were fixed overnight in 10 % neutral buffered formalin, embedded in paraffin, sectioned in 3 µm thick and dried. Slides were dewaxed and re-hydrated through a series of graded ethanol until water and finally stained with hematoxilin-eosin (H-E). Photographs were taken using an Olympus DP73 digital camera and a Vanox AHBS3 Olympus microscope.

Fanca-deficient mice [2] = experiment: Telomere fluorescence analysis on spleen tissue sections by Q-FISH; type: in vivo; conditions: for telomere length: compared with control treatment (water)
Experimental: as §1, §2
Quantitative telomere fluorescence in situ hybridization (Q-FISH) was performed directly on spleen tissue sections as previously described (c.f. Flores I et al., "The longest telomeres: a general signature of adult stem cell compartments", Genes Dev. 2008; vol. 22(5), pp. 654-67). Spleen tissue was hybridized with the PNA telomeric oligonucleotide (CCCTTA)3 labeled with Cy3 (PE Biosystems). After that, digital images were acquired.
Confocal microscopy was performed at room temperature with a laser-scanning microscope (TSC SP5) using a Plan Apo 63Å-1.40 NA oil immersion objective (HCX). Maximal projection of z-stack images generated using advanced fluorescence software (LAS) was analyzed with Definiens XD software package. DAPI images were used to detect telomeric signals inside each nucleus. To study telomere length, average intensity of individual telomeres of around 940 nuclei per mouse was analyzed. To study short telomeres, intensity of around 31,000 individual telomeres was studied per mouse. A total of 7 mice were studied in the control group and 10 mice in NAC or Ambroxol groups.

Fanca-deficient mice [3] = experiment: Chronic treatment of Fanca-deficient mice: survival and general health; type: in vivo
Experimental: as §1, §2

[4] = system: FANCA-deficient lymphoblastoid cell lines; experiment: FCM assay: cell cycle analysis (cells in G2/M phase); type: cell-based, human; conditions: three FANCA-deficient cell lines; basal around 20% without treatment
[5] = affected mice/mice studied, H2O 0/7
[6] = affected mice/mice studied, H2O 1/7
[7] = affected mice/mice studied, H2O 2/7

Nc1c(Br)cc(Br)cc1CN[C@H]1CC[C@H](O)CC1 [Ambroxol, trans-4-(2-amino-3,5-dibromobenzylamino)cyclohexanol]
FANCD2 ubiquitination (FANCD2 ubiquitination): unable to restore FANCD2 ubiquitination | Liver, Light/moderate: Steatosis (Fanca-deficient mice [1]; [5]): 2/10 | Lung, Light/moderate: Pleuritis (Fanca-deficient mice [1]; [5]): 1/10 | Liver, Light/moderate: Vascular congestion (Fanca-deficient mice [1]; [6]): 1/10 | Liver, Severe: Multiple myeloid precursor infiltration (Fanca-deficient mice [1]; [6]): 0/10 | Lung, Light/moderate: BALT activation (Fanca-deficient mice [1]; [6]): 1/10 | Lung, Light/moderate: Fibrosis (Fanca-deficient mice [1]; [6]): 0/10 | Lung, Light/moderate: Interstitial pneumonia (Fanca-deficient mice [1]; [6]): 5/10 | Lung, Severe: General vascular congestion (Fanca-deficient mice [1]; [6]): 0/10 | Lung, Severe: Myeloid-shape cellullar embolism (Fanca-deficient mice [1]; [6]): 0/10 | Lung, Severe: Osseous metaplasia (Fanca-deficient mice [1]; [6]): 0/10 | Spleen, Light/moderate: Lymphoid hyperplasia (Fanca-deficient mice [1]; [6]): 3/10 | Liver, Severe: Vesicular steatosis (Fanca-deficient mice [1]; [7]): 0/10 | Spleen, Severe: Spleen hyperplasia (likely linfoma) (Fanca-deficient mice [1]; [7]): 0/10 | Liver, Light/moderate: Chronic hepatitis (perivascular) (Fanca-deficient mice [1]; affected mice/mice studied, H2O 3/7): 7/10 | severe organ defects (Fanca-deficient mice [1]; end of experiment (1 year)): no severe organ defects | improvement in telomere's length with respect to NAC (Fanca-deficient mice [2]; one year of treatment): about 5 fold | telomere length (Fanca-deficient mice [2]; one year of treatment): significant increase | length of short telomeres (Fanca-deficient mice [2]; untreated versus Ambroxol treated mice): significantly shorter in untreated mice | proportion of short telomeres respect the total number of telomeres (Fanca-deficient mice [2]; untreated versus treated mice): significantly bigger in untreated mice | survival at the end of the experiment (Fanca-deficient mice [3]; 1 year, Ambroxol 1mM in drinking water ad libitum, 40 % of control mice alive): All mice from the Ambroxol group were alive and healthy | general health condition and survival (Fanca-deficient mice [3]; related to untreated mice): improvement | percentage of cells in G2/M phase in basal conditions [4]: lowered this percentage

CC(=O)N[C@@H](CS)C(=O)O [NAC, N-acetylcysteine]
telomere length (Fanca-deficient mice [2]; one year of treatment): modest improvement
